{"source": "paper PMC10518257", "about": "(Nature Cancer, 2023)", "key": {"[1]": {"tested_on": "ECLC5 luciferase cells implanted intracranially", "experiment": "Intracranial efficacy study", "assay_type": "in vivo, NSG mice", "conditions": "for Luminescence Data: Fig. 8e ECLC5 intracranial, individual animals"}, "[2]": {"biological_target": "panel of 255 (vepafestinib) or 256 (all other inhibitors) recombinant kinases", "experiment": "Kinase selectivity profiling at a single concentration (Carna Biosciences)", "assay_type": "biochemical", "conditions": "22 nM, 256 kinases"}, "[3]": {"biological_target": "T1, panel of 255 (vepafestinib) or 256 (all other inhibitors) recombinant kinases (Homo sapiens, UniProt P16234)", "T1 construct": "purchased Carna Biosciences", "T1 sequence (P16234 24-1089)": "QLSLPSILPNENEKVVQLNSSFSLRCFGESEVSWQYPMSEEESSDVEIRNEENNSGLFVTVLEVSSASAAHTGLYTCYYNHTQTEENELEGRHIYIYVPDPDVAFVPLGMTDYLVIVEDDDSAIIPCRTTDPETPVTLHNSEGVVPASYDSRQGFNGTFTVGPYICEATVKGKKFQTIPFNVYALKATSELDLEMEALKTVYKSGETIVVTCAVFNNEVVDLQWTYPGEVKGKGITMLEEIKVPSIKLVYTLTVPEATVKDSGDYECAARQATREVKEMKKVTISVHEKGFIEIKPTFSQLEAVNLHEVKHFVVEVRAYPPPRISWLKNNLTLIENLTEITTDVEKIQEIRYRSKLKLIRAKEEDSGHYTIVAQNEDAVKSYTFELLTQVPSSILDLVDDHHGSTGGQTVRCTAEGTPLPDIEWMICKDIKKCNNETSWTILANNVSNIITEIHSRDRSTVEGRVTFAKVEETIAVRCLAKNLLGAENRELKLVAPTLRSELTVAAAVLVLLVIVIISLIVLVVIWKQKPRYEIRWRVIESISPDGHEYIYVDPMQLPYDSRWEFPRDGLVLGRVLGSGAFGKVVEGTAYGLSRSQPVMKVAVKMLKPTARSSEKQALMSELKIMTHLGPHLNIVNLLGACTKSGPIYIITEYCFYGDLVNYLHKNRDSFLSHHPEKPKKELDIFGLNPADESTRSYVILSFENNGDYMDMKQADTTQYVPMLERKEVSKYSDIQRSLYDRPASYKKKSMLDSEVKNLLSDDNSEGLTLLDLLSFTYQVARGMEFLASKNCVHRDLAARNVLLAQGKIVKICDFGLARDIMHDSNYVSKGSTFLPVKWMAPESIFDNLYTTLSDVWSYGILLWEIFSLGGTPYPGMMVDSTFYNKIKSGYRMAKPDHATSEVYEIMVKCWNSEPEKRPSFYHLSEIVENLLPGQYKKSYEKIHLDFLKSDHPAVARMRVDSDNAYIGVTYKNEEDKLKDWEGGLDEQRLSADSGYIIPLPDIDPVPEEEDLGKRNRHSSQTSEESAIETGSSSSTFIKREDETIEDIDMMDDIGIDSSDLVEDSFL", "experiment": "Kinase selectivity profiling at a single concentration (Carna Biosciences)", "assay_type": "biochemical", "conditions": "22 nM"}, "[4]": {"biological_target": "T2, panel of 255 (vepafestinib) or 256 (all other inhibitors) recombinant kinases (Homo sapiens, UniProt P35916)", "T2 construct": "purchased Carna Biosciences", "T2 sequence (P35916 25-1363)": "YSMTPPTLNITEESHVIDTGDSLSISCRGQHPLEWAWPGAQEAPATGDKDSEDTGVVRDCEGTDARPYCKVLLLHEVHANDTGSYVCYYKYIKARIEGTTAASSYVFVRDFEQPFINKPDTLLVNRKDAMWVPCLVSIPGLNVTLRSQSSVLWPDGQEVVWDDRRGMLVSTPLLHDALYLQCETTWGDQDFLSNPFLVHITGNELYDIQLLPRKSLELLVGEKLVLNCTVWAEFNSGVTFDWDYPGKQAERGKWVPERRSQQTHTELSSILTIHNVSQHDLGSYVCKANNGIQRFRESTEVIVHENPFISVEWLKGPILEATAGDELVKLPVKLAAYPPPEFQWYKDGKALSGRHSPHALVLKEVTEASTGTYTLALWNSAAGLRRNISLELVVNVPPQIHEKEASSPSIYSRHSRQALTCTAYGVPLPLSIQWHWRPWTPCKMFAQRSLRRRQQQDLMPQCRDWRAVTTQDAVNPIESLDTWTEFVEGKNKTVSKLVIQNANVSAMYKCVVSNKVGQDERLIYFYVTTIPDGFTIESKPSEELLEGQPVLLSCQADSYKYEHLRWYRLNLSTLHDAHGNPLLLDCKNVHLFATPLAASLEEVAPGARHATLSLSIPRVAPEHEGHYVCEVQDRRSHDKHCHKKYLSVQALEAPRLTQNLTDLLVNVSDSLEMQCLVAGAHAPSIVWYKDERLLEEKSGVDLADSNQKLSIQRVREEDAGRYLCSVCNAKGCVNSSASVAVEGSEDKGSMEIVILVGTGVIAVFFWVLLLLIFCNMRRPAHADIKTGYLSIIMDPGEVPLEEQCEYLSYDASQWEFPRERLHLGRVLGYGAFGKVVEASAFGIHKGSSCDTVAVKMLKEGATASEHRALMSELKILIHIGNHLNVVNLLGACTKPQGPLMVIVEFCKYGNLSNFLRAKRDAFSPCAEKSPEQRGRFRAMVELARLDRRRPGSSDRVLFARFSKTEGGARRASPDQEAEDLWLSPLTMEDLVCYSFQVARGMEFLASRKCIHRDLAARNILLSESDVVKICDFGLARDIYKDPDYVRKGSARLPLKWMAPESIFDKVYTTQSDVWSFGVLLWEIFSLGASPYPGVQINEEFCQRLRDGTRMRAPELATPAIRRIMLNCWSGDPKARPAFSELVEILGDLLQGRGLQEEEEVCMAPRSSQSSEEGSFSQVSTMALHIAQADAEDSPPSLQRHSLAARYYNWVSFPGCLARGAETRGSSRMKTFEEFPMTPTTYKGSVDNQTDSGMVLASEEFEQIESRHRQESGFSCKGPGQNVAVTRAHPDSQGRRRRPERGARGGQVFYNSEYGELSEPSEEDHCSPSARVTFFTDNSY", "experiment": "Kinase selectivity profiling at a single concentration (Carna Biosciences)", "assay_type": "biochemical", "conditions": "22 nM"}, "[5]": {"tested_on": "Ba/F3 cells expressing KIF5B–RET^G810C", "experiment": "Growth inhibition assay in Ba/F3 cells (CellTiter-Glo, 72 h)", "assay_type": "cell-based", "conditions": "replicate Sets 1-3"}, "[6]": {"tested_on": "Ba/F3 KIF5B–RET^G810R allograft tumors", "experiment": "Subcutaneous allograft efficacy study;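 further: mean tumor volume per dosing group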", "assay_type": "in vivo, BALB/c nude mice", "conditions": "in mm³ (unit assumed)"}, "HBECp53-EV cells": {"tested_on": "HBECp53-EV cells", "experiment": "Growth inhibition (alamarBlue, 96 h)", "assay_type": "cell-based, human", "conditions": "for raw viability signal (Source Data Fig. 3b-c): HBEC-EV, replicate sets"}, "TT cells (RET C634W)": {"tested_on": "TT cells (RET C634W)", "experiment": "Dose-response western blotting, EC50 for inhibition of protein phosphorylation", "assay_type": "cell-based", "conditions": "Homo sapiens"}, "LUAD-0087AS2 PDX": {"tested_on": "LUAD-0087AS2 PDX", "experiment": "PDX efficacy study", "conditions": "for Tumor volume: LUAD-0087AS2, selpercatinib group 30 mg/kg BID, individual animals"}, "[7]": {"experiment": "Animal weight of tumor-bearing mice", "conditions": "Ba/F3-KIF5B::RET G810R (Fig 8f), Selpercatinib 10 mg/kg BID"}}, "note": "Values joined by “and” are separate entries in the source; they are usually repeats but may differ in a detail not shown here. Identical values can stand only once. Like-named read-outs stand apart in the source and are kept apart here."}
{"smiles": "COc1ccc(CN2C3CC2CN(c2ccc(-c4cc(OCC(C)(C)O)cn5ncc(C#N)c45)cn2)C3)cn1", "note": "[Selpercatinib]", "values": [{"measurement": "median survival time", "setting": "[1]; 10 mg per kg BID", "value": "99 d of treatment"}, {"measurement": "Area Under Curve Mean", "setting": "[1]; Fig. 8e (middle panel) ECLC5 luminescence, 10 mg/kg BID", "value": 27186332000}, {"measurement": "Luminescence Data", "setting": "[1]; 10 mg/kg BID, treatment day 0 (=1)", "value": 1}, {"measurement": "Luminescence Data", "setting": "[1]; 10 mg/kg BID, treatment day 5, day 0 = 1, 10 mg/kg", "value": "1.5865 and 1.821 and 1.255 and 0.4814 and 3.25 and 0.8886"}, {"measurement": "Luminescence Data", "setting": "[1]; 10 mg/kg BID, treatment day 12, day 0 = 1, 10 mg/kg", "value": "3.019 and 2.275 and 2.308 and 0.7742 and 2.674 and 1.142"}, {"measurement": "Luminescence Data", "setting": "[1]; 10 mg/kg BID, treatment day 18, day 0 = 1, 10 mg/kg", "value": "4.468 and 13.8627 and 3.677 and 17.2275 and 4.61 and 2.3303"}, {"measurement": "Luminescence Data", "setting": "[1]; 10 mg/kg BID, treatment day 26, day 0 = 1, 10 mg/kg", "value": "4.838 and 8.783 and 2.8 and 90.8154 and 2.049 and 2.4586"}, {"measurement": "Luminescence Data", "setting": "[1]; 10 mg/kg BID, treatment day 33, day 0 = 1, 10 mg/kg", "value": "19.3932 and 14.9637 and 7.347 and 180.944 and 3.353 and 5.483"}, {"measurement": "Luminescence Data", "setting": "[1]; 10 mg/kg BID, treatment day 40, day 0 = 1, 10 mg/kg", "value": "20.6751 and 16.1418 and 17.1097 and 476.137 and 5.8 and 4.798"}, {"measurement": "Luminescence Data", "setting": "[1]; 10 mg/kg BID, treatment day 46, day 0 = 1, 10 mg/kg", "value": "53.1577 and 52.4694 and 35.0274 and 881.545 and 19.3617 and 18.0494"}, {"measurement": "Luminescence Data", "setting": "[1]; 10 mg/kg BID, treatment day 55, day 0 = 1, 10 mg/kg", "value": "200.4 and 271.183 and 155.59 and 1935.62 and 78.0003 and 75.6827"}, {"measurement": "Luminescence Data", "setting": "[1]; 10 mg/kg BID, treatment day 61, day 0 = 1, 10 mg/kg", "value": "323.18 and 414.363 and 232.604 and 1527.04 and 186.289 and 64.6294"}, {"measurement": "Luminescence Data", "setting": "[1]; 10 mg/kg BID, treatment day 68, day 0 = 1, 10 mg/kg", "value": "561.802 and 676.257 and 207.714 and 1673.82 and 333.171 and 210.62"}, {"measurement": "Luminescence Data", "setting": "[1]; 10 mg/kg BID, treatment day 75, day 0 = 1, 10 mg/kg", "value": "570.505 and 1484.59 and 792.807 and 4751.93 and 432.014 and 174.469"}, {"measurement": "Luminescence Data", "setting": "[1]; 10 mg/kg BID, treatment day 82, day 0 = 1, 10 mg/kg", "value": "999.294 and 1867.47 and 955.043 and 3557.94 and 547.305 and 464.239"}, {"measurement": "kinases inhibited by >50%", "setting": "[2]", "value": "three"}, {"measurement": "% Inhibiton PDGFRα", "setting": "[3]", "value": 28.7, "unit": "%"}, {"measurement": "% Inhibiton FLT4", "setting": "[4]", "value": 84.9, "unit": "%"}, {"measurement": "GI50", "setting": "[5]; Ba/3-KIF5B-RET-G810C", "value": "201 nM and 181 nM"}, {"measurement": "GI50", "setting": "[5]; Mus musculus, BaF3, Ba/3-KIF5B-RET-G810C", "value": 233, "unit": "nM"}, {"measurement": "Tumor Volume Mean", "setting": "[6]; Fig. 7c Ba/F3-KIF5B::RET G810R, selpercatinib 10 mg/kg BID, day 1", "value": 153.47}, {"measurement": "Tumor Volume Mean", "setting": "[6]; Fig. 7c Ba/F3-KIF5B::RET G810R, selpercatinib 10 mg/kg BID, day 4", "value": 195.84}, {"measurement": "Tumor Volume Mean", "setting": "[6]; Fig. 7c Ba/F3-KIF5B::RET G810R, selpercatinib 10 mg/kg BID, day 8", "value": 432.66}, {"measurement": "Tumor Volume Mean", "setting": "[6]; Fig. 7c Ba/F3-KIF5B::RET G810R, selpercatinib 10 mg/kg BID, day 11", "value": 585.46}, {"measurement": "Tumor Volume Mean", "setting": "[6]; Fig. 7c Ba/F3-KIF5B::RET G810R, selpercatinib 10 mg/kg BID, day 15", "value": 999.76}, {"measurement": "Tumor Volume Mean", "setting": "[6]; Fig. 7d Ba/F3-KIF5B::RET G810R, selpercatinib 30 mg/kg BID, day 1", "value": 157.6}, {"measurement": "Tumor Volume Mean", "setting": "[6]; Fig. 7d Ba/F3-KIF5B::RET G810R, selpercatinib 30 mg/kg BID, day 4", "value": 307.7}, {"measurement": "Tumor Volume Mean", "setting": "[6]; Fig. 7d Ba/F3-KIF5B::RET G810R, selpercatinib 30 mg/kg BID, day 8", "value": 440.3}, {"measurement": "Tumor Volume Mean", "setting": "[6]; Fig. 7d Ba/F3-KIF5B::RET G810R, selpercatinib 30 mg/kg BID, day 11", "value": 551.9}, {"measurement": "Tumor Volume Mean", "setting": "[6]; Fig. 7d Ba/F3-KIF5B::RET G810R, selpercatinib 30 mg/kg BID, day 15", "value": 795.7}, {"measurement": "raw viability signal (Source Data Fig. 3b-c)", "setting": "HBECp53-EV cells; 0.01 nM", "value": "19116.4 (2×) and 30437.1"}, {"measurement": "raw viability signal (Source Data Fig. 3b-c)", "setting": "HBECp53-EV cells; 0.1 nM", "value": "18667.6 (2×) and 30340.4"}, {"measurement": "raw viability signal (Source Data Fig. 3b-c)", "setting": "HBECp53-EV cells; 1 nM", "value": "19461.2 (2×) and 29511.3"}, {"measurement": "raw viability signal (Source Data Fig. 3b-c)", "setting": "HBECp53-EV cells; 10 nM", "value": "19276.9 (2×) and 28618.6"}, {"measurement": "raw viability signal (Source Data Fig. 3b-c)", "setting": "HBECp53-EV cells; 100 nM", "value": "19331.4 (2×) and 28192.3"}, {"measurement": "raw viability signal (Source Data Fig. 3b-c)", "setting": "HBECp53-EV cells; 1000 nM", "value": "18208.7 (2×) and 25648.6"}, {"measurement": "raw viability signal (Source Data Fig. 3b-c)", "setting": "HBECp53-EV cells; 10000 nM", "value": 8503.33}, {"measurement": "IC50", "setting": "HBECp53-EV cells; Homo sapiens, 96 h, read-out: IC50 for Inhibition of Growth (95% CI)", "value": 11400, "unit": "nM"}, {"measurement": "EC50", "setting": "TT cells (RET C634W); read-out: EC50 for Inhibition of Protein Phosphorylation (95% CI), AKT S473, 2 h, densitometry", "value": 1.9, "unit": "nM"}, {"measurement": "EC50", "setting": "TT cells (RET C634W); read-out: EC50 for Inhibition of Protein Phosphorylation (95% CI), ERK1/2 T202/Y204, 2 h, densitometry", "value": 0.2, "unit": "nM"}, {"measurement": "EC50", "setting": "TT cells (RET C634W); read-out: EC50 for Inhibition of Protein Phosphorylation (95% CI), MEK1/2 S217/S221, 2 h, densitometry", "value": 1.9, "unit": "nM"}, {"measurement": "EC50", "setting": "TT cells (RET C634W); read-out: EC50 for Inhibition of Protein Phosphorylation (95% CI), P70 RSK T421/S424, 2 h, densitometry", "value": 1.7, "unit": "nM"}, {"measurement": "EC50", "setting": "TT cells (RET C634W); read-out: EC50 for Inhibition of Protein Phosphorylation (95% CI), RET Y905, 2 h, densitometry", "value": 11.8, "unit": "nM"}, {"measurement": "EC50", "setting": "TT cells (RET C634W); read-out: EC50 for Inhibition of Protein Phosphorylation (95% CI), S6RP S235/S236, 2 h, densitometry", "value": 0.6, "unit": "nM"}, {"measurement": "Area Under Curve Mean", "setting": "LUAD-0087AS2 PDX; Fig. 6a LUAD-0087AS2 tumor growth, selpercatinib 30 mg/kg BID", "value": -1216}, {"measurement": "Tumor volume", "setting": "LUAD-0087AS2 PDX; treatment day 0", "value": "118.47 (2×) and 116.65 and 114.49 (2×)"}, {"measurement": "Tumor volume", "setting": "LUAD-0087AS2 PDX; treatment day 3", "value": "107.17 (3×) and 103.77 and 112.73"}, {"measurement": "Tumor volume", "setting": "LUAD-0087AS2 PDX; treatment day 7", "value": "99.78 and 112.28 and 107.17 (2×) and 110.58"}, {"measurement": "Tumor volume", "setting": "LUAD-0087AS2 PDX; treatment day 10", "value": "95.03 (4×) and 96.62"}, {"measurement": "Tumor volume", "setting": "LUAD-0087AS2 PDX; treatment day 14", "value": "91.61 and 88.25 and 95.03 and 86.78 and 91.87"}, {"measurement": "Tumor volume", "setting": "LUAD-0087AS2 PDX; treatment day 17", "value": "103.77 and 88.25 and 107.17 and 96.62 and 91.87"}, {"measurement": "Tumor volume", "setting": "LUAD-0087AS2 PDX; treatment day 21", "value": "103.77 and 83.83 and 96.62 (2×) and 91.87"}, {"measurement": "Tumor volume", "setting": "LUAD-0087AS2 PDX; treatment day 24", "value": "72.18 (2×) and 83.97 and 80.89 and 74.9"}, {"measurement": "Tumor volume", "setting": "LUAD-0087AS2 PDX; treatment day 29", "value": "80.89 (2×) and 72.18 and 85.5 and 74.9"}, {"measurement": "Tumor volume", "setting": "LUAD-0087AS2 PDX; treatment day 32", "value": "80.89 (3×) and 75.04 and 70.69"}, {"measurement": "Tumor volume", "setting": "LUAD-0087AS2 PDX; treatment day 35", "value": "82.36 and 75.04 and 88.7 and 80.89 and 70.69"}, {"measurement": "Tumor volume", "setting": "LUAD-0087AS2 PDX; treatment day 38", "value": "79.29 and 75.04 and 88.7 and 80.89 and 70.69"}, {"measurement": "Tumor volume", "setting": "LUAD-0087AS2 PDX; treatment day 42", "value": "79.29 and 75.04 and 98.67 and 80.89 and 77.87"}, {"measurement": "Tumor volume", "setting": "LUAD-0087AS2 PDX; treatment day 45", "value": "79.29 and 72.18 and 98.67 and 68.07 and 73.54"}, {"measurement": "Animal Weight, Mean", "setting": "[7]; day 1", "value": 27.18, "unit": "g"}, {"measurement": "Animal Weight, Mean", "setting": "[7]; day 4", "value": 26.90, "unit": "g"}]}
